The source of these data is the Kinase Knowledgebase extract (Sharma et al. 2016).

The experiment addresses EGFR (human) (UniProt P00533).

Chain of EGFR (human) (P00533 whole entry, looked up): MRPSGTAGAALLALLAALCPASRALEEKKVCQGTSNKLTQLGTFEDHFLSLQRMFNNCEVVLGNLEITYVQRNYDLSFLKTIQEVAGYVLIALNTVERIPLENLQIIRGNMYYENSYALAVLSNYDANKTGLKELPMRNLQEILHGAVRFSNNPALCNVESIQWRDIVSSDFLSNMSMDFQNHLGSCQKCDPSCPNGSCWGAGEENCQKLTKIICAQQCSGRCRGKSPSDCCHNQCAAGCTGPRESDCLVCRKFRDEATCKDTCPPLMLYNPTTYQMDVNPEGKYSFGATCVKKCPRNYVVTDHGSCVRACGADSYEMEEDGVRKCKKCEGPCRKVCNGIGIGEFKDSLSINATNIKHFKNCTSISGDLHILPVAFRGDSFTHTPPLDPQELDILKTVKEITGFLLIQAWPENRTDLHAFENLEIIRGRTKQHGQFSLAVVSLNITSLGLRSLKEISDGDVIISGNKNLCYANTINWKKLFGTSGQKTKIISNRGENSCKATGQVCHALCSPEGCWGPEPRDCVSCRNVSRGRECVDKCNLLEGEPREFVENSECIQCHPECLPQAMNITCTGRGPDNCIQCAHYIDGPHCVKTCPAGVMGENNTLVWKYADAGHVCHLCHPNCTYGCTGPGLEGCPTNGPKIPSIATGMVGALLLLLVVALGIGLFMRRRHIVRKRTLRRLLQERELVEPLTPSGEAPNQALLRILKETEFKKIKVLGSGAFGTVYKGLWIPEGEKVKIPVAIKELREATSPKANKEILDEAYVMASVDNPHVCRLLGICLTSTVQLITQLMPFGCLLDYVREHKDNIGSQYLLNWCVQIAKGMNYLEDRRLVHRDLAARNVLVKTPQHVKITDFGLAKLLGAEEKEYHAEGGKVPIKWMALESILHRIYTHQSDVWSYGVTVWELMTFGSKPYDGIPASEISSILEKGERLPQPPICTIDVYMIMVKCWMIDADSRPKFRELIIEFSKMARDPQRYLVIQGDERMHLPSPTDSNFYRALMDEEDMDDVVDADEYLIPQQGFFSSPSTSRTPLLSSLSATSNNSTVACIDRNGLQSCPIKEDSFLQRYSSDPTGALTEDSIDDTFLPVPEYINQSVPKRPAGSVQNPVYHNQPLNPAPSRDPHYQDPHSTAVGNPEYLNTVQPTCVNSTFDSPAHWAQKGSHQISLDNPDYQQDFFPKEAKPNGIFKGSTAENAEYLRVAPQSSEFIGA

`COc1cc2ncnc(Nc3ccc(F)c(Cl)c3)c2cc1OCC(=O)NO`: the IC50 – broadly, the concentration that inhibits the measured activity by half – is at most 100 nM. Compound `C#Cc1cccc(Nc2ncnc3cc(OCCCCCCC(=O)NO)c(OCCOC)cc23)c1` yielded a concentration for half-maximal inhibition (IC50) of at most 100 nM. For `COc1cc2ncnc(NCc3ccc(F)c(F)c3)c2cc1OCCCCCCC(=O)NO` the value was 100 to 1000 nM; for `C#Cc1cc(Nc2ncnc3cc(OCCOC)c(OCCCCCCC(=O)NO)cc23)ccc1F`, at most 100 nM; for `COc1cc2ncnc(Nc3ccc(F)c(Cl)c3)c2cc1NC(=O)CCCCCCC(=O)NO`, at most 100 nM. As for `O=C(CCCCCCOc1ccc2ncnc(Nc3ccc(OCc4cccc(F)c4)c(Cl)c3)c2c1)NO`, the figure is at most 100 nM; as for `COCCOc1cc2ncnc(Nc3ccc(F)c(Cl)c3)c2cc1OCCCCCCC(=O)NO`, at most 100 nM. For `C#Cc1cccc(Nc2ncnc3cc(OC)c(OCCCC(=O)NO)cc23)c1` the value was at most 100 nM. As to `C#Cc1cccc(Nc2ncnc3ccc(OCCCCC(=O)NO)cc23)c1`, the IC50 was at most 100 nM.

On to `COc1cc2ncnc(Nc3ccc(F)c(Cl)c3)c2cc1OCCCCCCC(=O)N(C)O`, for which the IC50 is at most 100 nM. As for `COCCOc1cc2ncnc(Nc3ccc(OCc4cccc(F)c4)c(Cl)c3)c2cc1OCCCCCCC(=O)NO`, the figure is at most 100 nM; as for `COc1cc2ncnc(N[C@H](C)c3ccccc3)c2cc1OCCCCCC(=O)NO`, at most 100 nM; as for `C#Cc1cccc(Nc2ncnc3cc(OC)c(NC(=O)CCCC(=O)NO)cc23)c1`, at most 100 nM. As for `COc1cc2ncnc(Nc3ccc(OCc4cccc(F)c4)c(Cl)c3)c2cc1OCCCCCCC(=O)NO`, the figure is at most 100 nM; as for `COc1cc2ncnc(Nc3ccc(F)c(Cl)c3)c2cc1OCCOc1ccc(CC(=O)NO)cc1`, at most 100 nM; as for `C#Cc1cc(Nc2ncnc3cc(OC)c(OCCCCCCC(=O)NO)cc23)ccc1F`, at most 100 nM. For `C[C@@H](Nc1ncnc2ccc(OCCCCCC(=O)NO)cc12)c1ccccc1` the value was 100 to 1000 nM; for `COc1cc2ncnc(Nc3ccc(F)c(Cl)c3)c2cc1NC(=O)CCCC(=O)NO`, at most 100 nM. `C#Cc1cccc(Nc2ncnc3ccc(OCCCCCC(=O)NO)cc23)c1` displayed an IC50 of 100 to 1000 nM. In turn, `COc1cc2ncnc(NCc3ccccc3)c2cc1OCCCCCCC(=O)NO` displayed an IC50 of at most 100 nM. For `C#Cc1cccc(Nc2ncnc3cc(OC)c(OCCC(=O)NO)cc23)c1` the value was at most 100 nM; for `C#Cc1cccc(Nc2ncnc3cc(O)c(OCCCCCCC(=O)NO)cc23)c1`, at most 100 nM; for `C#Cc1cccc(Nc2ncnc3ccc(OCCCCCCC(=O)NO)cc23)c1`, 100 to 1000 nM. The compound `COc1cc2ncnc(Nc3ccc(F)c(Cl)c3)c2cc1OCCOc1ccc(C=CC(=O)NO)cc1` returned an IC50 of at most 100 nM. As for `O=C(CCCCCCCNCc1ccc(-c2ccc3ncnc(Nc4ccc(OCc5cccc(F)c5)c(Cl)c4)c3c2)o1)NO`, the figure is at most 100 nM; as for `COc1cc2ncnc(Nc3ccc(F)c(Cl)c3)c2cc1CCCCCC(=O)NO`, at most 100 nM; as for `C#Cc1cccc(Nc2ncnc3cc(OC)c(OCCCCCC(=O)NO)cc23)c1`, at most 100 nM.

`COc1cc2ncnc(NCc3cccc(Br)c3)c2cc1OCCCCCCC(=O)NO` gave a half-inhibitory concentration (IC50) of 100 to 1000 nM. For `COc1ccc([C@@H](C)Nc2ncnc3cc(OC)c(OCCCCCCC(=O)NO)cc23)cc1`, the IC50 was at least 10000 nM.

In turn, `O=C(CCOc1ccc2ncnc(Nc3ccc(F)c(Cl)c3)c2c1)NO` had an IC50 of at most 100 nM. For the compound `O=C(CCCCOc1ccc2ncnc(Nc3ccc(F)c(Cl)c3)c2c1)NO`, the IC50 is at most 100 nM. In the case of `O=C(COc1ccc2ncnc(Nc3ccc(F)c(Cl)c3)c2c1)NO`, the IC50 is at most 100 nM.

`O=C(CCCCCOc1ccc2ncnc(Nc3ccc(F)c(Cl)c3)c2c1)NO` came in with a concentration for half-maximal inhibition (IC50) of at most 100 nM.

As to `COc1cc2ncnc(NCCc3ccccc3)c2cc1OCCCCCCC(=O)NO`, the IC50 was 100 to 1000 nM. Regarding `COc1cc2ncnc(Nc3ccc(F)c(Cl)c3)c2cc1NC(=O)Nc1ccc(C(=O)NO)cc1`, the IC50 was at most 100 nM. As for `C#Cc1cc(Nc2ncnc3cc(OC)c(OCCCCCCC(=O)NO)cc23)ccc1O`, the figure is at most 100 nM.

Regarding `C#Cc1cccc(Nc2ncnc3ccc(OCC(=O)NO)cc23)c1`, the half-maximal inhibitory concentration (IC50) was at most 100 nM. As for `O=C(CCCCCCOc1ccc2ncnc(Nc3ccc(F)c(Cl)c3)c2c1)NO`, the figure is at most 100 nM. `COc1cc2ncnc(Nc3ccc(F)c(Cl)c3)c2cc1OCCCCCCN(O)C(N)=O` gave a concentration for half-maximal inhibition (IC50) of at most 100 nM. For `C#Cc1cccc(Nc2ncnc3cc(OC)c(OCC(=O)NO)cc23)c1` the value was at most 100 nM; for `COCCOc1cc2ncnc(Nc3ccc(F)c(Cl)c3)c2cc1NC(=O)CCCC(=O)NO`, at most 100 nM. As for `C[C@@H](Nc1ncnc2ccc(OCCCCCCC(=O)NO)cc12)c1ccccc1`, the figure is 100 to 1000 nM; as for `COc1cc2ncnc(Nc3ccc(F)c(Cl)c3)c2cc1OCCCCCCC(=O)NO`, at most 100 nM; as for `COCCOc1cc2ncnc(Nc3ccc(F)c(Cl)c3)c2cc1NC(=O)CCCCCCC(=O)NO`, at most 100 nM. Take `COc1cc2ncnc(N[C@H](C)c3ccc(Cl)cc3)c2cc1OCCCCCCC(=O)NO`: the half-inhibitory concentration (IC50) lay within 100 to 1000 nM. The compound `COCCOc1cc2c(Nc3ccc(F)c(Cl)c3)ncnc2cc1OCCCCCCC(=O)NO` came in with an IC50 of at most 100 nM. For `C#Cc1cccc(Nc2ncnc3cc(OC)c(NC(=O)CCCCCCC(=O)NO)cc23)c1` the value was at most 100 nM; for `COCCOc1cc2ncnc(Nc3ccc(F)c(Cl)c3)c2cc1NC(=O)CCCCC(=O)NO`, at most 100 nM; for `COc1cc2ncnc(Nc3ccc(F)c(Cl)c3)c2cc1SCCCCC(=O)NO`, at most 100 nM. As for `C#Cc1cccc(Nc2ncnc3cc(OCCCCCCC(=O)NO)c(OC)cc23)c1`, the concentration for half-maximal inhibition (IC50) is at most 100 nM.

`Nc1cc(Br)ccc1NC(=O)COc1ccc2ncnc(Nc3ccc(F)c(Cl)c3)c2c1` had an IC50 of 100 to 1000 nM.

`C#Cc1cccc(Nc2ncnc3ccc(OCCCC(=O)NO)cc23)c1` registered an IC50 of 100 to 1000 nM. As for `COc1cc2ncnc(N[C@H](C)c3ccc(F)cc3)c2cc1OCCCCCCC(=O)NO`, the figure is 100 to 1000 nM; as for `C#Cc1cccc(Nc2ncnc3cc(OCCOC)c(OCCCCCCC(=O)NO)cc23)c1`, at most 100 nM. As for `O=C(CCCCCNCc1ccc(-c2ccc3ncnc(Nc4ccc(OCc5cccc(F)c5)c(Cl)c4)c3c2)o1)NO`, the figure is at most 100 nM; as for `COc1cc2ncnc(Nc3ccc(F)c(Cl)c3)c2cc1OCCC(=O)NO`, at most 100 nM; as for `COc1cc2ncnc(Nc3ccc(F)c(Cl)c3)c2cc1OCCCCC(=O)NO`, at most 100 nM. As for `COc1cc2ncnc(Nc3ccc(F)c(Cl)c3)c2cc1OCCOc1ccc(C(=O)NO)cc1`, the figure is at most 100 nM; as for `COc1cc2ncnc(NCc3ccc(F)c(Cl)c3)c2cc1OCCCCCCC(=O)NO`, at most 100 nM; as for `COc1cc2ncnc(Nc3ccc(F)c(Cl)c3)c2cc1OCCCCCC(=O)NO`, at most 100 nM.

For `C#Cc1cccc(Nc2ncnc3cc(OC)c(NC(=O)CCCCC(=O)NO)cc23)c1`, the IC50 is at most 100 nM. With `COc1cc2ncnc(Nc3ccc(F)c(Cl)c3)c2cc1SCCCCCCC(=O)NO`, the IC50 is at most 100 nM. `COc1cc2ncnc(Nc3ccc(F)c(Cl)c3)c2cc1OCCCC(=O)NO` showed an IC50 of at most 100 nM.
